Here are results for 23 molecules from patent US9907800B2, “Kinase inhibitors and method of treating cancer” (University Health Network, priority 2010, dated 2018).

One test concerns the target Aurora B (Homo sapiens (Human), UniProt Q96GD4). The test is described as follows: Aurora B inhibition assay (Z-Lyte). It is filed as biochemical. Particulars: read-out: Aurora B IC50 Ranges.
The next test addresses human PLK4 (Homo sapiens (Human), UniProt O00444). Put plainly: PLK4 inhibition assay (indirect ELISA). The class given is biochemical. Particulars: read-out: PLK4 IC50 Ranges. A general note: An ELISA detects its analyte on a solid surface through an enzyme-linked reagent.

Where a name gives a salt, the structure may show the parent alone.

Aurora B, sequence (Q96GD4 whole entry): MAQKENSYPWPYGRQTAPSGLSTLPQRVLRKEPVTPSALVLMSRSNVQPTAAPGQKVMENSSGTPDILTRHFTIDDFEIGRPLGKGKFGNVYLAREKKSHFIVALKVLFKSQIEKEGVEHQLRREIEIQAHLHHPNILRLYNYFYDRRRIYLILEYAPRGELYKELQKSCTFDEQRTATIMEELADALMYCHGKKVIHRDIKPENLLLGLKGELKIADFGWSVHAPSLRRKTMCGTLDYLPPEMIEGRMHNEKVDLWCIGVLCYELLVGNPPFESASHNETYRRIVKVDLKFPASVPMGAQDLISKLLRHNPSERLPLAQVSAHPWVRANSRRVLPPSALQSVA
human PLK4, sequence (O00444 1-391): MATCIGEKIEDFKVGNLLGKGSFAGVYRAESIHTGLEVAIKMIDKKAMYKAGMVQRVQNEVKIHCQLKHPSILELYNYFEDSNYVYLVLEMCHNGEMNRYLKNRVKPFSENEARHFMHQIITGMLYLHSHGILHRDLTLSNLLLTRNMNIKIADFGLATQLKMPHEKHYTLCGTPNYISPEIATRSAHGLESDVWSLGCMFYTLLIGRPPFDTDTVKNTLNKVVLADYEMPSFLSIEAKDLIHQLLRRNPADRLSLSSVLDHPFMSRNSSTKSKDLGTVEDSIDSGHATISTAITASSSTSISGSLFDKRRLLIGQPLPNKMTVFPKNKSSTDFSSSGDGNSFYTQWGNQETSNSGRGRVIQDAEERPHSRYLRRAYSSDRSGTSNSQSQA
Method for Aurora B: Aurora B inhibition was determined using the Z-Lyte assay kit from Invitrogen. […] The % inhibition values were determined according to the manufacturer's directions and IC50 values were obtained using a non-linear 4 point logistic curve fit (XLfit4, IDBS)
Method for human PLK4: PLK4 activity was measured using an indirect ELISA detection system. […] The colourimetric reaction was allowed to continue for 5 minutes, followed by addition of stop solution (0.5 N sulphuric acid), and quantified by detection at 450 nm with either a monochromatic or filter based plate reader (Molecular Devices M5 or Beckman DTX880, respectively).
Compounds were pre-incubated in the presence of enzyme for 15 minutes prior to addition of ATP and the activity remaining quantified using the above described activity assay. […] The IC50 value was determined using a non-linear 4 point logistic curve fit (XLfit4, IDBS) with the formula; (A+(B/(1+((x/C)^D)))), where A=background value, B=range, C=inflection point, D=curve fit parameter.

What is called IC50 is the concentration that gives 50% inhibition. Consider `COc1ccc2c(c1)[C@]1(C[C@H]1c1ccc3c(/C=C/c4csc(CN5CCOCC5)c4)n[nH]c3c1)C(=O)N2` [Example A183, (1R,2S)-5′-methoxy-2-(3-((E)-2-(5-(morpholinomethyl)thiophen-3-yl)vinyl)-1H-indazol-6-yl)spiro[cyclopropane-1,3′-indolin]-2′-one 2,2,2-trifluoroacetate], for which the IC50 on Aurora B and at human PLK4 was less than 100 nM throughout.

As to `COc1ccc2c(c1)[C@]1(C[C@H]1c1ccc3c(-c4cccc(CO)c4)n[nH]c3c1)C(=O)N2` (relative stereo) [Example A43, (1R*,2S*)-2-(3-(3-(hydroxymethyl)phenyl)-1H-indazol-6-yl)-5′-methoxy spiro[cyclopropane-1,3′-indolin]-2′-one 2,2,2-trifluoroacetate], the IC50 on Aurora B and on human PLK4 was less than 100 nM throughout.

`COc1ccc2c(c1)[C@]1(C[C@H]1c1ccc3c(C#Cc4cccnc4)n[nH]c3c1)C(=O)N2` (relative stereo) [Example A52, (1R*,2S*)- and (1R*,2S*)-5′-methoxy-2-(3-(pyridin-3-ethynyl)-1H-indazol-6-yl)spiro[cyclopropane-1,3′-indolin]-2′-one]: the IC50 on Aurora B and on human PLK4 was less than 100 nM throughout.

Turning to `COc1ccc2c(c1)[C@]1(C[C@H]1c1ccc3c(/C=C/c4ccncc4)n[nH]c3c1)C(=O)N2` [Example A111, (1R,2S)-5′-methoxy-2-(3-((E)-2-(pyridin-4-yl)vinyl)-1H-indazol-6-yl)spiro[cyclopropane-1,3′-indolin]-2′-one 2,2,2-trifluoroacetate], the IC50 at Aurora B and on human PLK4 was less than 100 nM each time.

`O=C1Nc2ccccc2[C@]12C[C@H]2c1ccc2c(/C=C/c3ccc(N4CCNCC4)cc3)n[nH]c2c1` [Example A92, (1R,2S)-(E)-2-(3-(4-(piperazin-1-yl)styryl)-1H-indazol-6-yl)spiro[cyclopropane-1,3′-indolin]-2′-one 2,2,2-trifluoroacetate]: the IC50 on Aurora B and on human PLK4 was less than 100 nM throughout.

Take `NS(=O)(=O)c1cccc(-c2n[nH]c3cc([C@@H]4C[C@@]45C(=O)Nc4ccccc45)ccc23)c1` (relative stereo) [Example A130, 3-(6-((1R*,2S*)-2′-oxospiro[cyclopropane-1,3′-indoline]-2-yl)-1H-indazol-3-yl)benzenesulfonamide]: the results for the IC50 on Aurora B and on human PLK4 were 100 to 1000 nM and less than 100 nM, respectively.

Regarding `CCN1CCN(c2ccc(/C=C/c3n[nH]c4cc([C@@H]5C[C@@]56C(=O)Nc5ccc(OC)cc56)ccc34)cc2)CC1` [Example A187, (1R,2S)-(E)-2-(3-(4-(4-ethylpiperazin-1-yl)styryl)-1H-indazol-6-yl)-5′-methoxyspiro[cyclopropane-1,3′-indolin]-2′-one 2,2,2-trifluoroacetate], the IC50 on Aurora B and on human PLK4 was less than 100 nM in each case.

As to `COc1ccc2c(c1)[C@]1(C[C@H]1c1ccc3c(-c4ccnc(N5CCN(C)CC5)c4)n[nH]c3c1)C(=O)N2` (relative stereo) [Example A37, (1R*,2S*)-5′-Methoxy-2-(3-(2-(4-methylpiperazin-1-yl)pyridin-4-yl)-1H-indazol-6-yl)spiro[cyclopropane-1,3′-indolin]-2′-one], the IC50 at Aurora B and on human PLK4 was less than 100 nM in each case.

Regarding `CN1CCC(Cc2ccc(/C=C/c3n[nH]c4cc([C@@H]5C[C@@]56C(=O)Nc5ccccc56)ccc34)cc2)CC1` [Example A81, (1R,2S)-(E)-2-(3-(4-((1-methylpiperidin-4-yl)methyl)styryl)-1H-indazol-6-yl)spiro[cyclopropane-1,3′-indolin]-2′-one 2,2,2-trifluoroacetate salt], the IC50 at Aurora B and on human PLK4 was less than 100 nM throughout.

Regarding `CN(C)Cc1ccc(/C=C/c2n[nH]c3cc([C@@H]4C[C@@]45C(=O)N(CC(N)=O)c4ccccc45)ccc23)cc1` (relative stereo) [Example A160, 2-((1R*,2S*)-(E)-2-(3-(4-((dimethylamino)methyl)styryl)-1H-indazol-6-yl)-2′-oxospiro[cyclopropane-1,3′-indoline]-1′-yl)acetamide 2,2,2-trifluoroacetate], the IC50 on Aurora B and at human PLK4 was less than 100 nM throughout.

Consider `COc1ccc2c(c1)[C@]1(C[C@H]1c1ccc3c(-c4ccc(N5CCN(C)CC5)nc4)n[nH]c3c1)C(=O)N2C` (relative stereo) [Example A104, (1R*,2S*)-5′-methoxy-1′-methyl-2-(3-(6-(4-methylpiperazin-1-yl)pyridin-3-yl)-1H-indazol-6-yl)spiro[cyclopropane-1,3′-indolin]-2′-one bis(2,2,2-trifluoroacetate)], for which the IC50 at Aurora B and at human PLK4 was less than 100 nM each time.

As for `COc1ccc2c(c1)[C@]1(C[C@H]1c1ccc3c(-c4ccc(N5CCN(CCO)CC5)cc4)n[nH]c3c1)C(=O)N2` [Example A191, (1R,2S)-2-(3-(4-(4-(2-hydroxyethyl)piperazin-1-yl)phenyl)-1H-indazol-6-yl)-5′-methoxyspiro[cyclopropane-1,3′-indolin]-2′-one 2,2,2-trifluoroacetate], the IC50 at Aurora B and on human PLK4 was less than 100 nM in each case.

Turning to `COc1ccc2c(c1)[C@]1(C[C@H]1c1ccc3c(I)n[nH]c3c1)C(=O)N2` [Example A7, (1R,2S)-2-(3-iodo-1H-indazol-6-yl)-5′-methoxyspiro[cyclopropane-1,3′-indolin]-2′-one], the IC50 is 100 to 1000 nM on Aurora B and less than 100 nM on human PLK4.

Consider `COc1ccc2c(c1)[C@]1(C[C@H]1c1ccc3c(-c4ccc5nccn5c4)n[nH]c3c1)C(=O)N2` [Example A107, (1R,2S)-2-(3-(imidazo[1,2-a]pyridin-6-yl)-1H-indazol-6-yl)-5′-methoxyspiro[cyclopropane-1,3′-indolin]-2′-one 2,2,2-trifluoroacetate], for which the 50% inhibitory concentration (IC50) at Aurora B and at human PLK4 was less than 100 nM throughout.

In the case of `CN1C(=O)[C@@]2(C[C@H]2c2ccc3c(/C=C/c4ccc(N5CCNCC5)cc4)n[nH]c3c2)c2ccccc21` [Example A90, (1R,2S)-(E)-1′-methyl-2-(3-(4-(piperazin-1-yl)styryl)-1H-indazol-6-yl)spiro[cyclopropane-1,3′-indolin]-2′-one hydrochloride], the IC50 on Aurora B and on human PLK4 was less than 100 nM in each case.

Consider `COCCN1C(=O)[C@@]2(C[C@H]2c2ccc3c(/C=C/c4ccc(CN(C)C)cc4)n[nH]c3c2)c2ccccc21` (relative stereo) [Example A180, (1R*,2S*)-(E)-2-(3-(4-((dimethylamino)methyl)styryl)-1H-indazol-6-yl)-1′-(2-methoxyethyl)spiro[cyclopropane-1,3′-indolin]-2′-one 2,2,2-trifluoroacetate], for which the IC50 on Aurora B and on human PLK4 was less than 100 nM throughout.

Turning to `COc1ccc2c(c1)[C@]1(C[C@H]1c1ccc3c(/C=C/c4ccc5c(c4)CCN(C)C5)n[nH]c3c1)C(=O)N2` [Example A75, (1R,2S)-5′-methoxy-2-(3-((E)-2-(2-methyl-1,2,3,4-tetrahydroisoquinolin-6-yl)vinyl)-1H-indazol-6-yl)spiro[cyclopropane-1,3′-indolin]-2′-one 2,2,2-trifluoroacetate salt], the IC50 on Aurora B and at human PLK4 was less than 100 nM in each case.

With `COc1ccc2c(c1)[C@]1(C[C@H]1c1ccc3c(-c4ccc5c(c4)CN(C)CC5)n[nH]c3c1)C(=O)N2` [Example A70, (1R,2S)-5′-methoxy-2-(3-(2-methyl-1,2,3,4-tetrahydroisoquinolin-7-yl)-1H-indazol-6-yl)spiro[cyclopropane-1,3′-indolin]-2′-one 2,2,2-trifluoroacetate salt], the IC50 at Aurora B and on human PLK4 was less than 100 nM each time.

`CN1C(=O)[C@@]2(C[C@H]2c2ccc3c(/C=C/c4ccc(CN5CCCCC5)cc4)n[nH]c3c2)c2ccccc21` (relative stereo) [Example A95, (1R*,2S*)-(E)-1′-methyl-2-(3-(4-(piperidin-1-ylmethyl)styryl)-1H-indazol-6-yl)spiro[cyclopropane-1,3′-indolin]-2′-one 2,2,2-trifluoroacetate]: the IC50 at Aurora B and at human PLK4 was less than 100 nM each time.

For the molecule `COc1ccc2c(c1)[C@]1(C[C@H]1c1ccc3c(/C=C/c4ccc(OC5CCN(C)CC5)cc4)n[nH]c3c1)C(=O)N2` [Example A79, (1R,2S)-(E)-5′-methoxy-2-(3-(4-(1-methylpiperidin-4-yloxy)styryl)-1H-indazol-6-yl)spiro[cyclopropane-1,3′-indolin]-2′-one 2,2,2-trifluoroacetate salt], the IC50 at Aurora B and on human PLK4 was less than 100 nM in each case.

For `COc1ccc2c(c1)[C@]1(C[C@H]1c1ccc3c(/C=C/c4csc(CN(C)C)c4)n[nH]c3c1)C(=O)N2` (relative stereo) [Example A181, (1R,2S)-2-(3-((E)-2-(5-((dimethylamino)methyl)thiophen-3-yl)vinyl-1H-indazol-6-yl)-5′-methoxyspiro[cyclopropane-1,3′-indolin]-2′-one 2,2,2-trifluoro acetate], the IC50 on Aurora B and at human PLK4 was less than 100 nM in each case.

As to `Cc1ccc2c(c1)[C@]1(C[C@H]1c1ccc3c(-c4ccc(N5CCN(C)CC5)cc4)n[nH]c3c1)C(=O)N2` (relative stereo) [Example A173, (1R*,2S)-5′-methyl-2-(3-(4-(4-methylpiperazin-1-yl)phenyl)-1H-indazol-6-yl)spiro[cyclopropane-1,3′-indolin]-2′-one 2,2,2-trifluoroacetate], the IC50 at Aurora B and on human PLK4 was less than 100 nM each time.

For the molecule `COc1ccc2c(c1)[C@]1(C[C@H]1c1ccc3c(-c4ccc(OCCN5CCCCC5)cc4)n[nH]c3c1)C(=O)N2` [Example A67, (1R,2S)-5′-methoxy-2-(3-(4-(2-(piperidin-1-yl)ethoxy)phenyl)-1H-indazol-6-yl)spiro[cyclopropane-1,3′-indolin]-2′-one 2,2,2-trifluoroacetate salt], the half-maximal inhibitory concentration (IC50) at Aurora B and on human PLK4 was less than 100 nM each time.
